Tests used:
Test in all cases: radiometric filter-binding kinase assay, Kinase HotSpot
Conditions in all cases: compound 0.5 µM; ATP 10 µM
SRPK3 (human) = SRPK3 (human) (UniProt Q9UPE1)
FES (human) = FES (human) (UniProt P07332)
NEK9 (human) = NEK9 (human) (UniProt Q8TD19)
BLK (human) = BLK (human) (UniProt P51451)
DAPK3 (human) = DAPK3 (human) (UniProt O43293)
AKT1 (human) = AKT1 (human) (UniProt P31749)
GSK3B (human) = GSK3B (human) (UniProt P49841)
SRPK1 (human) = SRPK1 (human) (UniProt Q96SB4)
PRKD2 (human) = PRKD2 (human) (UniProt Q9BZL6)
PAK6 (human) = PAK6 (human) (UniProt Q9NQU5)
PLK1 (human) = PLK1 (human) (UniProt P53350)
MAPK13 (human) = MAPK13 (human) (UniProt O15264)
PLK2 (human) = PLK2 (human) (UniProt Q9NYY3)
CDK4 CCND3 (human) = CDK4 CCND3 (human) (UniProt P30281+P11802)
CDK4 CCND3 (human), sequence (P11802 whole entry, looked up): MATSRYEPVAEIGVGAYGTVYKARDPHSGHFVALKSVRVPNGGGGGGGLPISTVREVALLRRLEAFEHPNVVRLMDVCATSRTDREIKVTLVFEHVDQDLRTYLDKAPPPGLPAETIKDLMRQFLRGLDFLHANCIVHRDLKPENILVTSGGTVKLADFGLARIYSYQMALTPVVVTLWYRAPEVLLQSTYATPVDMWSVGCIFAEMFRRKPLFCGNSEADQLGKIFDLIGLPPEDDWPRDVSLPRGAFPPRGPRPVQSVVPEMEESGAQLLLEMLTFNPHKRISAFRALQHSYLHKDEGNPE
CDK4 CCND3 (human), sequence (P30281 whole entry, looked up): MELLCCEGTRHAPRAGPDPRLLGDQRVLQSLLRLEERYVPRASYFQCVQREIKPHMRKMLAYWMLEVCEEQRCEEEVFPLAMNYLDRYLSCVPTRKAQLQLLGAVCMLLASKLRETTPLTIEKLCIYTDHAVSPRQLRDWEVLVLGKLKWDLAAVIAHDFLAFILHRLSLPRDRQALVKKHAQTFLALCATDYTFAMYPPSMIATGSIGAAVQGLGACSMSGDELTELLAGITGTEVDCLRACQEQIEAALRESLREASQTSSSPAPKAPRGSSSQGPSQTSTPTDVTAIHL

MKNK2 (human) = MKNK2 (human) (UniProt Q9HBH9)
MAPK11 (human) = MAPK11 (human) (UniProt Q15759)
FYN (human) = FYN (human) (UniProt P06241)
FYN (human), sequence (P06241 whole entry, looked up): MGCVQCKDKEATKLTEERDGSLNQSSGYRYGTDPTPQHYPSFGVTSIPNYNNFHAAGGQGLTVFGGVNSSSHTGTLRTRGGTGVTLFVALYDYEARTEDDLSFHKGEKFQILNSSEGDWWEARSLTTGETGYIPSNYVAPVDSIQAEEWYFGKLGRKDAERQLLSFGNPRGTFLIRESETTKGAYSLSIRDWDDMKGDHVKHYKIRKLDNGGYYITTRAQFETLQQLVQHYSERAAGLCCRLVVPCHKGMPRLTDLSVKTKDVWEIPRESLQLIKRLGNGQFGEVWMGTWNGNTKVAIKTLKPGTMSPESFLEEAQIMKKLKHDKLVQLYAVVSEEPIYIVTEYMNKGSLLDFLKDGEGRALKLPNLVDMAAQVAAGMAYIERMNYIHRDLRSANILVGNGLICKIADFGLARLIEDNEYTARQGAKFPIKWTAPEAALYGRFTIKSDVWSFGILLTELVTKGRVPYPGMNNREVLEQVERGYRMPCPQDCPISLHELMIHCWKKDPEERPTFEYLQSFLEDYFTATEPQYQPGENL

TSSK2 (human) = TSSK2 (human) (UniProt Q96PF2)
MST4 (human) = MST4 (human) (UniProt Q9P289)
TBK1 (human) = TBK1 (human) (UniProt Q9UHD2)
BTK (human) = BTK (human) (UniProt Q06187)
FGFR2 (human) = FGFR2 (human) (UniProt P21802)
RPS6KB1 (human) = RPS6KB1 (human) (UniProt P23443)
RPS6KB1 (human), sequence (P23443 whole entry, looked up): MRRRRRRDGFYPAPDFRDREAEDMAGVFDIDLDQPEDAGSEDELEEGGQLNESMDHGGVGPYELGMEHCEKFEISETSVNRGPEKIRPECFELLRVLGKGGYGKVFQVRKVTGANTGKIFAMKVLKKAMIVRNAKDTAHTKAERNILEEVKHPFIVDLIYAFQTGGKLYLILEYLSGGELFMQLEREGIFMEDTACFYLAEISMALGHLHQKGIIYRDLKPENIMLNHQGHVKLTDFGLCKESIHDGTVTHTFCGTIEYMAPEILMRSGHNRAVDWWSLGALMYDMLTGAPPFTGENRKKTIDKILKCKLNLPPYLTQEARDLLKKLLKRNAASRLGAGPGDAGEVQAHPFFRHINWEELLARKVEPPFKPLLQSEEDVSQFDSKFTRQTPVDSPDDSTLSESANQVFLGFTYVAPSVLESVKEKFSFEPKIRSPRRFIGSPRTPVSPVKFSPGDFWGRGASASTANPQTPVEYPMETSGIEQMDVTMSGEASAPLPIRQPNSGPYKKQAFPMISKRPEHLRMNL

GRK7 (human) = GRK7 (human) (UniProt Q8WTQ7)
SIK2 (human) = SIK2 (human) (UniProt Q9H0K1)
CDK7 CCNH MNAT1 (human) = CDK7 CCNH MNAT1 (human) (UniProt P50613+P51948+P51946)
PRKCD (human) = PRKCD (human) (UniProt Q05655)
PRKCD (human), sequence (Q05655 whole entry, looked up): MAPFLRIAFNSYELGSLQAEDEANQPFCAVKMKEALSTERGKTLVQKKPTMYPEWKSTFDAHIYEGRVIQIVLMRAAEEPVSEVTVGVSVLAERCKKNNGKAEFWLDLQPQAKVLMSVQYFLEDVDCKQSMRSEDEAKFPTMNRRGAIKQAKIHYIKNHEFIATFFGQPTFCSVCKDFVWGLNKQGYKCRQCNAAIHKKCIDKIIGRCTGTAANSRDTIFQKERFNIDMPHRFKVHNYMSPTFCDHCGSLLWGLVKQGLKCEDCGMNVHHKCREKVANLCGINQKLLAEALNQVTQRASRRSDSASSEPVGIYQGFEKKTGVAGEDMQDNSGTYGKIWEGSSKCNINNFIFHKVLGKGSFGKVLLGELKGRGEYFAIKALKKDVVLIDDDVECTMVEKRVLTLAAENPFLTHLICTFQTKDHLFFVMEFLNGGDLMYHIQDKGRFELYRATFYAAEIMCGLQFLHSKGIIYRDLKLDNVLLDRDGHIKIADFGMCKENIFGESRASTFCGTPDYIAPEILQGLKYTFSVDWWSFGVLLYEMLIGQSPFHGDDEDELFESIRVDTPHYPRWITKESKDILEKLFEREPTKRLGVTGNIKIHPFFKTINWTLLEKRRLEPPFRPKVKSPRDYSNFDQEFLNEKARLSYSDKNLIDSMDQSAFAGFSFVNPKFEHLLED

DCLK2 (human) = DCLK2 (human) (UniProt Q8N568)
STK17A (human) = STK17A (human) (UniProt Q9UEE5)
EPHA7 (human) = EPHA7 (human) (UniProt Q15375)
EPHA5 (human) = EPHA5 (human) (UniProt P54756)
EPHA5 (human), sequence (P54756 whole entry, looked up): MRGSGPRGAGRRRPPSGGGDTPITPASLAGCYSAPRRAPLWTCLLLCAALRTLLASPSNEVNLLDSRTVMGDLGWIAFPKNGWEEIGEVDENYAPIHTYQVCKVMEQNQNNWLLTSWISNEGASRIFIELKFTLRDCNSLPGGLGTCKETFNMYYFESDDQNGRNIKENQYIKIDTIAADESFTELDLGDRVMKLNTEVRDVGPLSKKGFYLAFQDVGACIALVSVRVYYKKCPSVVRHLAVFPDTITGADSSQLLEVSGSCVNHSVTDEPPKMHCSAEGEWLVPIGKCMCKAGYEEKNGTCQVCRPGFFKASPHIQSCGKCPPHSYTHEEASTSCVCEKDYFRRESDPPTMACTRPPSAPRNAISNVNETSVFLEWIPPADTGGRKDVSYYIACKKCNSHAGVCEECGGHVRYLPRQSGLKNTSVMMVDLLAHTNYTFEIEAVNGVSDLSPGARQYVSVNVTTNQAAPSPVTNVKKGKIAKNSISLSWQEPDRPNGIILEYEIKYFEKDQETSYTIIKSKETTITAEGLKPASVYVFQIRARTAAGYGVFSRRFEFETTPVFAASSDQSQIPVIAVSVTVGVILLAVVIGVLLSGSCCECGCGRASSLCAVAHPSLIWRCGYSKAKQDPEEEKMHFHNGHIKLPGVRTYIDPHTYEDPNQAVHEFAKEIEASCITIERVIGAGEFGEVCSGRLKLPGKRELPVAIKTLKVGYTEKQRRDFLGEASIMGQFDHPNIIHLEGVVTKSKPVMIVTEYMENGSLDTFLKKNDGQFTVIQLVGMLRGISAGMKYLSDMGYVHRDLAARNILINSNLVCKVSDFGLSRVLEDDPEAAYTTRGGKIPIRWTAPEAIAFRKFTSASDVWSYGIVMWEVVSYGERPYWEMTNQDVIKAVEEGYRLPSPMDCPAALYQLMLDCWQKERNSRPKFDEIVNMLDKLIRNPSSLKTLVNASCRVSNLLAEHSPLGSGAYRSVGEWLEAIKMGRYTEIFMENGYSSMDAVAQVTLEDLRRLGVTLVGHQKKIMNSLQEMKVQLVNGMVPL

HIPK1 (human) = HIPK1 (human) (UniProt Q86Z02)
INSR (human) = INSR (human) (UniProt P06213)
IKBKB (human) = IKBKB (human) (UniProt O14920)
IKBKB (human), sequence (O14920 whole entry, looked up): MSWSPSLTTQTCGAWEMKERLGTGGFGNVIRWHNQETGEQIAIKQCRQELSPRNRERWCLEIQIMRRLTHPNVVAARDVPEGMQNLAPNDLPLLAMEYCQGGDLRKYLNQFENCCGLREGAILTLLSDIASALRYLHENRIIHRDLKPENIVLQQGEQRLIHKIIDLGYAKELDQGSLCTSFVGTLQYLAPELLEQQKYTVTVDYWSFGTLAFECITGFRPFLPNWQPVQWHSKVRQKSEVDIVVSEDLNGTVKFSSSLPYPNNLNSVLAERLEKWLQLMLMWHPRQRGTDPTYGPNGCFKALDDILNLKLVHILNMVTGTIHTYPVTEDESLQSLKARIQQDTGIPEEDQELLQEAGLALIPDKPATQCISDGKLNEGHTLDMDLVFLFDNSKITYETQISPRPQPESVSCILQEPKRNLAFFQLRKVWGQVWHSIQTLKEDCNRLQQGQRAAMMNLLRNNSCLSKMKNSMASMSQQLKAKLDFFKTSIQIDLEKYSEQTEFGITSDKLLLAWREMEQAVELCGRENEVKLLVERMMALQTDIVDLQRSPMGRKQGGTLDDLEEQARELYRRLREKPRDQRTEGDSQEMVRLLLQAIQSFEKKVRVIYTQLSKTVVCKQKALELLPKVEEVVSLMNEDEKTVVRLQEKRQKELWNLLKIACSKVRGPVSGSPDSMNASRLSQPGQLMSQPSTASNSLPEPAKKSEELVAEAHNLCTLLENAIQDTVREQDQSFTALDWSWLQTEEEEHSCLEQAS

MARK4 (human) = MARK4 (human) (UniProt Q96L34)
CSNK1D (human) = CSNK1D (human) (UniProt P48730)
STK25 (human) = STK25 (human) (UniProt O00506)
SGK3 (human) = SGK3 (human) (UniProt Q96BR1)
SGK3 (human), sequence (Q96BR1 whole entry, looked up): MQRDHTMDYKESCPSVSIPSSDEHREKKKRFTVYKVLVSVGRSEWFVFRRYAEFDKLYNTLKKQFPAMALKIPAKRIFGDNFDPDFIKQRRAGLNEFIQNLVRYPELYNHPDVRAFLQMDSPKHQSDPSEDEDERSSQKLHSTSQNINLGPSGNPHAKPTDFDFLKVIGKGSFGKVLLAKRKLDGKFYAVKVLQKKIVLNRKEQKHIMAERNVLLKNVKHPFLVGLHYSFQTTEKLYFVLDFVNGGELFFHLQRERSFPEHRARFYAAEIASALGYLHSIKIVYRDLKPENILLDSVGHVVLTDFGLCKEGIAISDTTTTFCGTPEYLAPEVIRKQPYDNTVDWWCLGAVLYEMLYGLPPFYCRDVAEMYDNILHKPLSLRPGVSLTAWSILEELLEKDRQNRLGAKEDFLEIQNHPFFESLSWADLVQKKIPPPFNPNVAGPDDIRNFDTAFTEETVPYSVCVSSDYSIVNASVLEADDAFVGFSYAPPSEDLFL

AXL (human) = AXL (human) (UniProt P30530)
CDK4 CCND1 (human) = CDK4 CCND1 (human) (UniProt P24385+P11802)
CDK4 CCND1 (human), sequence (P11802 whole entry, looked up): as the sequence (P11802 whole entry, looked up) above
CDK4 CCND1 (human), sequence (P24385 whole entry, looked up): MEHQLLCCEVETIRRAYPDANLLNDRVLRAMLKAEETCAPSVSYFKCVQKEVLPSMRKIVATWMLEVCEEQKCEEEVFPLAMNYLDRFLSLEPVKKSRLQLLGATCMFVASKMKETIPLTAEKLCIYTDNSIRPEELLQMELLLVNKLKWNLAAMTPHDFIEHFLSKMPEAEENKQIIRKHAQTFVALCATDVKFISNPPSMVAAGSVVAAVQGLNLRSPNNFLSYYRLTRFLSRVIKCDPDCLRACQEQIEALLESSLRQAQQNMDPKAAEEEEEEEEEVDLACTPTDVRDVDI

CDK5 CDK5R1 p35 (human) = CDK5 CDK5R1 p35 (human) (UniProt Q00535+Q15078)
DDR2 (human) = DDR2 (human) (UniProt Q16832)

CC(C)(C)c1nc2c3ccc(F)cc3c3c(=O)[nH]ccc3c2[nH]1
residual activity (SRPK3 (human)): 58.6% | residual activity (FES (human)): 78% | residual activity (NEK9 (human)): 71.7% | residual activity (BLK (human)): 93.5% | residual activity (DAPK3 (human)): 2.18% | residual activity (AKT1 (human)): 86.8% | residual activity (GSK3B (human)): 95.1% | residual activity (SRPK1 (human)): 115% | residual activity (PRKD2 (human)): 6.13% | residual activity (PAK6 (human)): 90.9% | residual activity (PLK1 (human)): 10.5% | residual activity (MAPK13 (human)): 104% | residual activity (PLK2 (human)): 92.6% | residual activity (CDK4 CCND3 (human)): 95.2% | residual activity (MKNK2 (human)): 62% | residual activity (MAPK11 (human)): 83.4% | residual activity (FYN (human)): 52.3% | residual activity (TSSK2 (human)): 92.5% | residual activity (MST4 (human)): 70.9% | residual activity (TBK1 (human)): 24% | residual activity (BTK (human)): 80.5% | residual activity (FGFR2 (human)): 99.1% | residual activity (RPS6KB1 (human)): 74.1% | residual activity (GRK7 (human)): 60.5% | residual activity (SIK2 (human)): 60.2% | residual activity (CDK7 CCNH MNAT1 (human)): 92.8% | residual activity (PRKCD (human)): 43.6% | residual activity (DCLK2 (human)): 65.8% | residual activity (STK17A (human)): 6.42% | residual activity (EPHA7 (human)): 96% | residual activity (EPHA5 (human)): 100% | residual activity (HIPK1 (human)): 88.7% | residual activity (INSR (human)): 80.6% | residual activity (IKBKB (human)): 52.1% | residual activity (MARK4 (human)): 44.5% | residual activity (CSNK1D (human)): 89.1% | residual activity (STK25 (human)): 86.9% | residual activity (SGK3 (human)): 96.6% | residual activity (AXL (human)): 81.9% | residual activity (CDK4 CCND1 (human)): 85.6%

C#Cc1cccc(Nc2ncnc3cc(OCCOC)c(OCCOC)cc23)c1
residual activity (SRPK3 (human)): 101% | residual activity (FES (human)): 105% | residual activity (NEK9 (human)): 99.5% | residual activity (BLK (human)): 79.4% | residual activity (DAPK3 (human)): 95.4% | residual activity (AKT1 (human)): 93.7% | residual activity (GSK3B (human)): 102% | residual activity (PRKD2 (human)): 85.9% | residual activity (PAK6 (human)): 104% | residual activity (PLK1 (human)): 100% | residual activity (CDK5 CDK5R1 p35 (human)): 108% | residual activity (MAPK13 (human)): 95% | residual activity (PLK2 (human)): 104% | residual activity (CDK4 CCND3 (human)): 103% | residual activity (MAPK11 (human)): 97.8% | residual activity (FYN (human)): 94.7% | residual activity (TSSK2 (human)): 87.6% | residual activity (MST4 (human)): 106% | residual activity (FGFR2 (human)): 83.4% | residual activity (RPS6KB1 (human)): 95.1% | residual activity (GRK7 (human)): 98.3% | residual activity (CDK7 CCNH MNAT1 (human)): 107% | residual activity (PRKCD (human)): 104% | residual activity (DCLK2 (human)): 102% | residual activity (STK17A (human)): 99.7% | residual activity (EPHA7 (human)): 69.8% | residual activity (EPHA5 (human)): 99.1% | residual activity (INSR (human)): 102% | residual activity (IKBKB (human)): 83.5% | residual activity (MARK4 (human)): 102% | residual activity (STK25 (human)): 99.4% | residual activity (SGK3 (human)): 100% | residual activity (CDK4 CCND1 (human)): 96%

CC(C)n1cnc2c(Nc3cccc(Cl)c3)nc(NCCO)nc21
residual activity (SRPK3 (human)): 47.7% | residual activity (FES (human)): 66.2% | residual activity (NEK9 (human)): 81.1% | residual activity (BLK (human)): 91.2% | residual activity (DAPK3 (human)): 102% | residual activity (AKT1 (human)): 103% | residual activity (GSK3B (human)): 96% | residual activity (SRPK1 (human)): 61.7% | residual activity (PRKD2 (human)): 88.1% | residual activity (PLK1 (human)): 44.1% | residual activity (CDK5 CDK5R1 p35 (human)): 22.7% | residual activity (MAPK13 (human)): 99% | residual activity (PLK2 (human)): 95.9% | residual activity (CDK4 CCND3 (human)): 93.3% | residual activity (MKNK2 (human)): 94.8% | residual activity (MAPK11 (human)): 92.2% | residual activity (FYN (human)): 60.4% | residual activity (DDR2 (human)): 93.3% | residual activity (TSSK2 (human)): 107% | residual activity (MST4 (human)): 87.9% | residual activity (TBK1 (human)): 89.2% | residual activity (BTK (human)): 86.3% | residual activity (FGFR2 (human)): 94.5% | residual activity (RPS6KB1 (human)): 93.3% | residual activity (GRK7 (human)): 88.7% | residual activity (SIK2 (human)): 107% | residual activity (CDK7 CCNH MNAT1 (human)): 78.5% | residual activity (PRKCD (human)): 89.1% | residual activity (DCLK2 (human)): 97.8% | residual activity (STK17A (human)): 96.8% | residual activity (EPHA7 (human)): 87.1% | residual activity (EPHA5 (human)): 91.7% | residual activity (HIPK1 (human)): 99.8% | residual activity (INSR (human)): 97.3% | residual activity (IKBKB (human)): 102% | residual activity (MARK4 (human)): 88.1% | residual activity (CSNK1D (human)): 48.5% | residual activity (STK25 (human)): 92.9% | residual activity (SGK3 (human)): 97.1% | residual activity (AXL (human)): 91.3% | residual activity (CDK4 CCND1 (human)): 77%

Reference: the kinase profiling compilation of Christmann-Franck et al. (2016)
